Earlier results, collected in patent publication US20100210792A1, “DRUG DELIVERY” (priority 2006, published 2010).

conditions: Table 1 drug list

Hydrophobic | Structure (SMILES)
YES | CC(C)c1c(C(=O)Nc2ccccc2)c(-c2ccccc2)c(-c2ccc(F)cc2)n1CC[C@@H](O)C[C@@H](O)CC(=O)O [Atorvastatin]
YES | CC[C@H]1OC(=O)[C@H](C)[C@@H](O[C@H]2C[C@@](C)(OC)[C@@H](O)[C@H](C)O2)[C@H](C)[C@@H](O[C@@H]2O[C@H](C)C[C@H](N(C)C)[C@H]2O)[C@](C)(OC)C[C@@H](C)C(=O)[C@H](C)[C@@H](O)[C@]1(C)O [Clarithromycin]
YES | COc1ccc2nc([S@@+]([O-])Cc3ncc(C)c(OC)c3C)[nH]c2c1 [Esomeprazole]
YES | Cc1c(OCC(F)(F)F)ccnc1C[S+]([O-])c1nc2ccccc2[nH]1 (centres unmarked) [Lansoprazole]
YES | OCCOCCN1CCN(C2=Nc3ccccc3Sc3ccccc32)CC1 [Quetiapine]
YES | CC(C)c1nc(N(C)S(C)(=O)=O)nc(-c2ccc(F)cc2)c1/C=C/[C@@H](O)C[C@@H](O)CC(=O)O [Rosuvastatin]
YES | CN[C@H]1CC[C@@H](c2ccc(Cl)c(Cl)c2)c2ccccc21 [Sertradine]

Structure (SMILES) | Hydrophobic
Cc1nc2n(c(=O)c1CCN1CCC(c3noc4cc(F)ccc34)CC1)CCCC2 [Risperidone, 4-[2-[4-(6-fluorobenzo[d]isoxazol-3-yl)-1-piperidyl]ethyl]-3-methyl-2,6-diazabicyclo[4.4.0]deca-1,3-dien-5-one] | YES
